Experimental data taken from ChEMBL document CHEMBL5678810.
Active and inactive are the calls of the source. No cut-off for these calls is given here.

Assays:
[1] = target: Serine/threonine-protein kinase Chk2 (Homo sapiens) (UniProt O96017); assay: Inhibition of CHK2 Lys2 labeling site in human PC-3 cell lysate at 10 uM by KiNativ profiling analysis relative to control; format: subcellular
[2] = target: Calcium/calmodulin-dependent protein kinase kinase 2 (Homo sapiens) (UniProt Q96RR4); assay: Inhibition of T7 bacteriophage fused human CAMKK2 at 10 uM by KINOMEscan analysis relative to control
Chain of Calcium/calmodulin-dependent protein kinase kinase 2 (Homo sapiens) (Q96RR4 2-588 limits assumed): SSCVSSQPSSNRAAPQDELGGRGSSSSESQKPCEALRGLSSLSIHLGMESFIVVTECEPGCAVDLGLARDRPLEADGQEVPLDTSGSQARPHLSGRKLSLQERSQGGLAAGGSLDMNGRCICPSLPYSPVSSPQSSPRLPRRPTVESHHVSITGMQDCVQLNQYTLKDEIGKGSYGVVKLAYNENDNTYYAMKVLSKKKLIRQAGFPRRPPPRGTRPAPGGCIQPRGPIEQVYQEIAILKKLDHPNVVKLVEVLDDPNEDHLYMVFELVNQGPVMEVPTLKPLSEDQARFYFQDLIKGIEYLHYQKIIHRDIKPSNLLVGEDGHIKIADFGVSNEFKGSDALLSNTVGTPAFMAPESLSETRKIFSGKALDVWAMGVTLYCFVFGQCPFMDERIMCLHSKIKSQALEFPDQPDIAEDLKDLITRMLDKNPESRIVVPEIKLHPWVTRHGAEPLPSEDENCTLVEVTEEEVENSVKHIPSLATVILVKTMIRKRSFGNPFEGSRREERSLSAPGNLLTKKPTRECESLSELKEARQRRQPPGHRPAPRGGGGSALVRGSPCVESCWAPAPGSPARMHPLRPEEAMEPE

[3] = target: Receptor-interacting serine/threonine-protein kinase 2 (Homo sapiens) (UniProt O43353); assay: Inhibition of T7 bacteriophage fused human RIPK2 at 10 uM by KINOMEscan analysis relative to control
[4] = target: Tyrosine-protein kinase Mer (Homo sapiens) (UniProt Q12866); assay: Inhibition of T7 bacteriophage fused human MERTK at 10 uM by KINOMEscan analysis relative to control
[5] = target: Ribosomal protein S6 kinase alpha-1 (Homo sapiens) (UniProt Q15418); assay: Inhibition of T7 bacteriophage fused human N-terminal RSK1 Kinase domain-1 at 10 uM by KINOMEscan analysis relative to control
[6] = target: Serine/threonine-protein kinase SIK3 (Homo sapiens) (UniProt Q9Y2K2); assay: Inhibition of T7 bacteriophage fused human QSK at 10 uM by KINOMEscan analysis relative to control
[7] = target: Cytoplasmic tyrosine-protein kinase BMX (Homo sapiens) (UniProt P51813); assay: Inhibition of T7 bacteriophage fused human BMX at 10 uM by KINOMEscan analysis relative to control
Chain of Cytoplasmic tyrosine-protein kinase BMX (Homo sapiens) (P51813 whole entry, the tested form may be a part): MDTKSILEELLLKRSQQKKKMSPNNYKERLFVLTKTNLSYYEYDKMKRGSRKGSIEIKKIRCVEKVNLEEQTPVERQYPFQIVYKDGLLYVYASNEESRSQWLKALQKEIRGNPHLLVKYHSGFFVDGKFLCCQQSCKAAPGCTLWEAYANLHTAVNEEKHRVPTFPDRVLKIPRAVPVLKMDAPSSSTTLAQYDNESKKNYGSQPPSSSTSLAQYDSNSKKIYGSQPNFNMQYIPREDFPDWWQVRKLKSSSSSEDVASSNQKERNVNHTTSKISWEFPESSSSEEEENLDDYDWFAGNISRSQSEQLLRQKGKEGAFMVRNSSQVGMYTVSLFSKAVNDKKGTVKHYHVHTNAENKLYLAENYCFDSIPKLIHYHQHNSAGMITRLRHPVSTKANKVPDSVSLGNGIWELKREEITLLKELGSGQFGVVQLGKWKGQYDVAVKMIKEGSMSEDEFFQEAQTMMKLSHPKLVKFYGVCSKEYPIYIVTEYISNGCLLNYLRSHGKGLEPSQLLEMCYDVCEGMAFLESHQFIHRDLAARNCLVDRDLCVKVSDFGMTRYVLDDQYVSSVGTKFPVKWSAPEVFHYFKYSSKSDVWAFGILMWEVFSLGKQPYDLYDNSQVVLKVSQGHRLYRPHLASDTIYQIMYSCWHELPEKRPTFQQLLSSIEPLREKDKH

[8] = target: Ephrin type-A receptor 3 (Homo sapiens) (UniProt P29320); assay: Inhibition of T7 bacteriophage fused human EPHA3 at 10 uM by KINOMEscan analysis relative to control
[9] = target: Mast/stem cell growth factor receptor Kit (Homo sapiens) (UniProt P10721); assay: Inhibition of T7 bacteriophage fused human KIT at 10 uM by KINOMEscan analysis relative to control
[10] = target: Dual specificity mitogen-activated protein kinase kinase 1 (Homo sapiens) (UniProt Q02750); assay: Inhibition of T7 bacteriophage fused human MEK1 at 10 uM by KINOMEscan analysis relative to control
Chain of Dual specificity mitogen-activated protein kinase kinase 1 (Homo sapiens) (Q02750 whole entry, the tested form may be a part): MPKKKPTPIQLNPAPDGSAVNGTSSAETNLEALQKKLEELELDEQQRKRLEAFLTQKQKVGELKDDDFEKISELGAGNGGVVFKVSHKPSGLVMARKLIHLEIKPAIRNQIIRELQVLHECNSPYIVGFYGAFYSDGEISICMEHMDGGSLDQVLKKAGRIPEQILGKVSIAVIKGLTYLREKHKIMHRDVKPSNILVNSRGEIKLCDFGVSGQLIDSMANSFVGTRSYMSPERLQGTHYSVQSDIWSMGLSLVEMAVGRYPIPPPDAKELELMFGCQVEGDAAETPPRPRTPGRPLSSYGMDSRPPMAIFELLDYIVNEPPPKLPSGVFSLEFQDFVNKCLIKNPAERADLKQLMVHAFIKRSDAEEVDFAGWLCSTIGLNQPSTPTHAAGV

[11] = test system: Tyrosine-protein kinase ABL1 (Homo sapiens), P00519 [T315I]; assay: Inhibition of T7 bacteriophage fused human phosphorylated ABL1 T315I mutant at 10 uM by KINOMEscan analysis relative to control
[12] = target: Serine/threonine-protein kinase ULK2 (Homo sapiens) (UniProt Q8IYT8); assay: Inhibition of T7 bacteriophage fused human ULK2 at 10 uM by KINOMEscan analysis relative to control
[13] = target: Myosin light chain kinase (Homo sapiens) (UniProt Q32MK0); assay: Inhibition of T7 bacteriophage fused human MLCK at 10 uM by KINOMEscan analysis relative to control
[14] = target: RAC-gamma serine/threonine-protein kinase (Homo sapiens) (UniProt Q9Y243); assay: Inhibition of T7 bacteriophage fused human AKT3 at 10 uM by KINOMEscan analysis relative to control
[15] = target: Insulin-like growth factor 1 receptor (Homo sapiens) (UniProt P08069); assay: Inhibition of T7 bacteriophage fused human IGF1R at 10 uM by KINOMEscan analysis relative to control; values are per cent of control
Chain of Insulin-like growth factor 1 receptor (Homo sapiens) (P08069 31-736 limits assumed): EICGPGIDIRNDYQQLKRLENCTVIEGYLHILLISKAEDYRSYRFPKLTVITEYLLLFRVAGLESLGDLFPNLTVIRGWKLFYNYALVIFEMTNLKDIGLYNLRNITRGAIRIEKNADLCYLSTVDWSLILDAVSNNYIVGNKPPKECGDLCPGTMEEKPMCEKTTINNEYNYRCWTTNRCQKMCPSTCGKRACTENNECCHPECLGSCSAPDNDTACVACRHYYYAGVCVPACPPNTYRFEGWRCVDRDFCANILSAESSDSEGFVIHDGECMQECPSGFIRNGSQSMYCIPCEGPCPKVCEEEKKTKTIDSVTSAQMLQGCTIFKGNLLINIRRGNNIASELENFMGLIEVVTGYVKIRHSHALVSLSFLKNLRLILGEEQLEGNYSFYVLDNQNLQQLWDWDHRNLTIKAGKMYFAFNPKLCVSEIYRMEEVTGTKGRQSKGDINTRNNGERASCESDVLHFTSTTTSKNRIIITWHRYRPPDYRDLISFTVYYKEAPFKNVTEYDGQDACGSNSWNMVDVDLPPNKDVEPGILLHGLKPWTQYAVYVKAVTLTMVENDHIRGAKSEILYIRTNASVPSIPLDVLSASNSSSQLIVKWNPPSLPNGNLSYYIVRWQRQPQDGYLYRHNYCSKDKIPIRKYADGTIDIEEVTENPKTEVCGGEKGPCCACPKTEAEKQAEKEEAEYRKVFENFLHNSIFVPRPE
Chain of Insulin-like growth factor 1 receptor (Homo sapiens) (P08069 741-1367 limits assumed): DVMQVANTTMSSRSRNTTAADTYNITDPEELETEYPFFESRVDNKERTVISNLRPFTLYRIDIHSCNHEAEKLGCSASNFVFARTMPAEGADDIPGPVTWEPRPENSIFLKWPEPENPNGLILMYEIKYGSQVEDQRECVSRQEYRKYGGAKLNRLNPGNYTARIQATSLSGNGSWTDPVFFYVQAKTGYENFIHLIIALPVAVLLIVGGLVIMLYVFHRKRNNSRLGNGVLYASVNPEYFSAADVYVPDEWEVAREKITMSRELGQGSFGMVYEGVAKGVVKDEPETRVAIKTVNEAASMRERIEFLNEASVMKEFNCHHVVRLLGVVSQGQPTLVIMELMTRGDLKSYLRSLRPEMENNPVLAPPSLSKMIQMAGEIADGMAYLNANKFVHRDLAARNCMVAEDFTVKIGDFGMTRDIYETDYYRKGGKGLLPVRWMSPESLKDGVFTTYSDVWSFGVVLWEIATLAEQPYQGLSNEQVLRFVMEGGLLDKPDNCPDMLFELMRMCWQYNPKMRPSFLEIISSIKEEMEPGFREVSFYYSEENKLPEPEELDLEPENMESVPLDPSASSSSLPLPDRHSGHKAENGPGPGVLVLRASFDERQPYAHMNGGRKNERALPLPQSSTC

[16] = target: Mitogen-activated protein kinase kinase kinase kinase 4 (Homo sapiens) (UniProt O95819); assay: Inhibition of T7 bacteriophage fused human MAP4K4 at 10 uM by KINOMEscan analysis relative to control; values are per cent of control
Chain of Mitogen-activated protein kinase kinase kinase kinase 4 (Homo sapiens) (O95819 2-1239 limits assumed): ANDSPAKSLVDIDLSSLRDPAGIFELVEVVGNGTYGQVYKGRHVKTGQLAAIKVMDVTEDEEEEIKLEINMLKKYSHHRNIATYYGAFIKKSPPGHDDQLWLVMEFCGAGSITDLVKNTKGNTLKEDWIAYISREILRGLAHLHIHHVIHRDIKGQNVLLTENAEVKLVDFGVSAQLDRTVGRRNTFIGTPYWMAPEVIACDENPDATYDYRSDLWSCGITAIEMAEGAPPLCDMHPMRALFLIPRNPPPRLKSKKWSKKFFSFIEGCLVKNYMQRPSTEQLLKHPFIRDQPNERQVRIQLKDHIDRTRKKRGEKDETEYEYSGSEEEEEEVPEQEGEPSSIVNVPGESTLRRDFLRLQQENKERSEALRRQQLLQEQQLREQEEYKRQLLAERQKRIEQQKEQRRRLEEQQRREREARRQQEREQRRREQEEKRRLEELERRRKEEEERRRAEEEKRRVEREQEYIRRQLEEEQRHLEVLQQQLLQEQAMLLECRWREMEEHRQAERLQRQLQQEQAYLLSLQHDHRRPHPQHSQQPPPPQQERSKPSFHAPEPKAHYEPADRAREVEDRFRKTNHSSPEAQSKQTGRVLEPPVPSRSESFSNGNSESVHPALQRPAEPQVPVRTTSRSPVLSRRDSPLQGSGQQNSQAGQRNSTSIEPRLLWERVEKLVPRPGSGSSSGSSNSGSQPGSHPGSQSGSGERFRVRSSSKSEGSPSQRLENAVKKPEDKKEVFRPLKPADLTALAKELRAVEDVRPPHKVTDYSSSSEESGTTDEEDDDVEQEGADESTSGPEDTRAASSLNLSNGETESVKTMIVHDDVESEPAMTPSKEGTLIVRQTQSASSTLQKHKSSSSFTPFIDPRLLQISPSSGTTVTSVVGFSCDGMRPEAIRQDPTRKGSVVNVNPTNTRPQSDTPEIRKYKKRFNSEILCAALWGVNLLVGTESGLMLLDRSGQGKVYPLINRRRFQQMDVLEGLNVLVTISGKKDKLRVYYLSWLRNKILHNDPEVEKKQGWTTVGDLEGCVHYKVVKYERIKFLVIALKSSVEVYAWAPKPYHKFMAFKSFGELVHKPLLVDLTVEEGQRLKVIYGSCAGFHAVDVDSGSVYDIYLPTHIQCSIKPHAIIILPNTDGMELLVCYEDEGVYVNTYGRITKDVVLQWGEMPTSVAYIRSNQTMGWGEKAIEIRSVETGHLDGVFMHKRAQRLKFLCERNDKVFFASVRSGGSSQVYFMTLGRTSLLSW

[17] = test system: Tyrosine-protein kinase ABL1 (Homo sapiens), P00519 [F317I]; assay: Inhibition of T7 bacteriophage fused human phosphorylated ABL1 F317I mutant at 10 uM by KINOMEscan analysis relative to control
[18] = target: Cyclin-dependent kinase-like 1 (Homo sapiens) (UniProt Q00532); assay: Inhibition of T7 bacteriophage fused human CDKL1 at 10 uM by KINOMEscan analysis relative to control
[19] = target: Receptor-interacting serine/threonine-protein kinase 1 (Homo sapiens) (UniProt Q13546); assay: Inhibition of T7 bacteriophage fused human RIPK1 at 10 uM by KINOMEscan analysis relative to control
[20] = target: Mitogen-activated protein kinase kinase kinase 11 (Homo sapiens) (UniProt Q16584); assay: Inhibition of T7 bacteriophage fused human MLK3 at 10 uM by KINOMEscan analysis relative to control
Chain of Mitogen-activated protein kinase kinase kinase 11 (Homo sapiens) (Q16584 whole entry, looked up, the tested form may be a part): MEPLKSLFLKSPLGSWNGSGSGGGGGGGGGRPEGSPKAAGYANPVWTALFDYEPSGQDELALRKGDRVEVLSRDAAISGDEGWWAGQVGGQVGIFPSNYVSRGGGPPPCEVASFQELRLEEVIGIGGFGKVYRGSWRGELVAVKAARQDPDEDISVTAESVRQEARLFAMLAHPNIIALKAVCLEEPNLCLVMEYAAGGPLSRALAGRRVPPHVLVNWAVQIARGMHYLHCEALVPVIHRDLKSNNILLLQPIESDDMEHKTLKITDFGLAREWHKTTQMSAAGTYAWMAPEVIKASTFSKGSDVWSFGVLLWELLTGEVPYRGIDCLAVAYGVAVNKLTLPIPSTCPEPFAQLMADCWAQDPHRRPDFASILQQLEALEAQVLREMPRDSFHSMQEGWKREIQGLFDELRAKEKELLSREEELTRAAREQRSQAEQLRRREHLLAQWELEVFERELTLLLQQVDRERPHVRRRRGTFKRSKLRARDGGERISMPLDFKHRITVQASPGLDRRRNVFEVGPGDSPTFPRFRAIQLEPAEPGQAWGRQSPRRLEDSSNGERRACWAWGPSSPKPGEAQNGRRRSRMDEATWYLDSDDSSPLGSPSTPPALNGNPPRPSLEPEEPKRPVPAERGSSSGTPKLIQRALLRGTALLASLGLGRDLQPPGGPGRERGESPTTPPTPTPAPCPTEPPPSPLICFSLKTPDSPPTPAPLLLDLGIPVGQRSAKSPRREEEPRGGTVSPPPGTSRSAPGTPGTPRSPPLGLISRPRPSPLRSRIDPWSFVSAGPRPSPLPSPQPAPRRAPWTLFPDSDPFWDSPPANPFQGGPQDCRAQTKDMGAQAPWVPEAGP

[21] = target: Aurora kinase C (Homo sapiens) (UniProt Q9UQB9); assay: Inhibition of T7 bacteriophage fused human AURKC at 10 uM by KINOMEscan analysis relative to control
[22] = target: Tyrosine-protein kinase JAK1 (Homo sapiens) (UniProt P23458); assay: Inhibition of T7 bacteriophage fused human JAK1 JH1catalytic domain at 10 uM by KINOMEscan analysis relative to control
[23] = test system: Tyrosine-protein kinase ABL1 (Homo sapiens), P00519 [H396P]; assay: Inhibition of T7 bacteriophage fused human nonphosphorylated ABL1 H396P mutant at 10 uM by KINOMEscan analysis relative to control
[24] = target: ALK tyrosine kinase receptor (Homo sapiens) (UniProt Q9UM73); assay: Inhibition of T7 bacteriophage fused human ALK at 10 uM by KINOMEscan analysis relative to control
[25] = test system: Epidermal growth factor receptor (Homo sapiens), P00533 [UNDEFINED MUTATION]; assay: Inhibition of T7 bacteriophage fused human EGFR L747/T751del/Sins mutant at 10 uM by KINOMEscan analysis relative to control
[26] = target: Calcium/calmodulin-dependent protein kinase kinase 1 (Homo sapiens) (UniProt Q8N5S9); assay: Inhibition of T7 bacteriophage fused human CAMKK1 at 10 uM by KINOMEscan analysis relative to control
[27] = target: Protein kinase C eta type (Homo sapiens) (UniProt P24723); assay: Inhibition of T7 bacteriophage fused human PRKCH at 10 uM by KINOMEscan analysis relative to control
[28] = target: Serine/threonine-protein kinase/endoribonuclease IRE1 (Homo sapiens) (UniProt O75460); assay: Inhibition of T7 bacteriophage fused human ERN1 at 10 uM by KINOMEscan analysis relative to control; values are per cent of control
[29] = target: Ribosomal protein S6 kinase alpha-5 (Homo sapiens) (UniProt O75582); assay: Inhibition of T7 bacteriophage fused human C-terminal RPS6KA5 Kinase domain-2 at 10 uM by KINOMEscan analysis relative to control
[30] = target: Mitogen-activated protein kinase 15 (Homo sapiens) (UniProt Q8TD08); assay: Inhibition of T7 bacteriophage fused human ERK8 at 10 uM by KINOMEscan analysis relative to control
[31] = target: Leucine-rich repeat serine/threonine-protein kinase 2 (Homo sapiens) (UniProt Q5S007); assay: Inhibition of LRRK2 phosphorylation at Ser910 residue in EBV immortalized human derived lymphoblastoid cells at 0.01 to 3 uM incubated for 90 mins by immunoblot analysis; format: cell-based; details: Lymphoblastoid cell, dose 0.01-3 µM

Work on COc1cc(C(=O)N2CCC(N3CCN(C)CC3)CC2)ccc1Nc1ncc2c(n1)N(C1CCCC1)c1ccccc1C(=O)N2C yielded an inhibition [1] of 0%.

COc1cc(N2CCC(N3CCN(C)CC3)CC2)ccc1Nc1ncc2c(n1)N(C)c1ccccc1C(=O)N2C was tested, and the inhibition [2] was 31%, the inhibition [3] was 100% and the inhibition [4] was 100%. The inhibition [5] was 73%, the inhibition [6] was 100% and the inhibition [7] was 87%. The inhibition [8] was 100%, the inhibition [9] was 100% and the inhibition [10] was 100%. It also gave an inhibition [11] of 58%, an inhibition [12] of 67% and an inhibition [13] of 100%. The inhibition [14] was 100%, the residual activity [15] was 96% and the residual activity [16] was 85%. It also gave an inhibition [17] of 17%, an inhibition [18] of 78% and an inhibition [19] of 99%. For the same compound, the inhibition [20] was 100%, the inhibition [21] was 50% and the inhibition [22] was 100%. It also gave an inhibition [23] of 100%, an inhibition [24] of 13% and an inhibition [25] of 100%. For the same compound, the inhibition [26] was 73%, the inhibition [27] was 100% and the residual activity [28] was 59%. It also gave an inhibition [29] of 92% and an inhibition [30] of 100%.

In the case of CCOc1cc(C(=O)N2CCC(N3CCN(C)CC3)CC2)ccc1Nc1ncc2c(n1)N(C1CCCC1)c1ccccc1C(=O)N2C, the inhibition [31] was “inactive”.
